Results reported in the supplement of paper PMC10307832.

Key:
Assay in all cases: relative viability (nuclei count vs DMSO), 5 days (fraction); higher = more cells survive
Midostaurin + Linsitinib = compound: CO[C@@H]1[C@H](N(C)C(=O)c2ccccc2)C[C@H]2O[C@]1(C)n1c3ccccc3c3c4c(c5c6ccccc6n2c5c31)C(=O)NC4 [Midostaurin] + C[C@]1(O)C[C@@H](c2nc(-c3ccc4ccc(-c5ccccc5)nc4c3)c3c(N)nccn32)C1 [Linsitinib] (partner 1 µM)
In short: (§1)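 Each reported value is a median over duplicate plates. It expresses relative viability: treated-well nuclei count divided by vehicle-well nuclei count. Lung cancer cell lines in 1536-well plates were dosed by pin tool a day after seeding, alone with one drug or with a fixed anchor-drug dose plus five library-drug doses (not always all listed) in √10 steps, and nuclei were counted after 5 days.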

Midostaurin + Phenformin = compound: CO[C@@H]1[C@H](N(C)C(=O)c2ccccc2)C[C@H]2O[C@]1(C)n1c3ccccc3c3c4c(c5c6ccccc6n2c5c31)C(=O)NC4 [Midostaurin] + N=C(N)NC(=N)NCCc1ccccc1 [Phenformin] (partner 250 µM)
In short: as §1

Midostaurin + Tozasertib = compound: CO[C@@H]1[C@H](N(C)C(=O)c2ccccc2)C[C@H]2O[C@]1(C)n1c3ccccc3c3c4c(c5c6ccccc6n2c5c31)C(=O)NC4 [Midostaurin] + Cc1cc(Nc2cc(N3CCN(C)CC3)nc(Sc3ccc(NC(=O)C4CC4)cc3)n2)n[nH]1 [Tozasertib] (partner 0.1 µM)
In short: as §1

Midostaurin + OSI-027 = compound: CO[C@@H]1[C@H](N(C)C(=O)c2ccccc2)C[C@H]2O[C@]1(C)n1c3ccccc3c3c4c(c5c6ccccc6n2c5c31)C(=O)NC4 [Midostaurin] + COc1cccc2cc(-c3nc([C@H]4CC[C@H](C(=O)O)CC4)n4ncnc(N)c34)[nH]c12 [OSI-027] (partner 0.5 µM)
In short: as §1

[1] = compound: COc1cc(-c2nn([C@H]3CC[C@H](N4CCN(C(C)=O)CC4)CC3)c3ncnc(N)c23)ccc1NC(=O)c1cc2ccccc2n1C + CCNC(=O)c1noc(-c2cc(C(C)C)c(O)cc2O)c1-c1ccc(CN2CCOCC2)cc1 [Luminespib] (partner 0.01 µM)
In short: as §1

Cell Line	relative viability (Midostaurin + Linsitinib; first compound 0.01 µM)	relative viability (Midostaurin + Linsitinib; first compound 0.03162 µM)	relative viability (Midostaurin + Linsitinib; first compound 0.1 µM)	relative viability (Midostaurin + Linsitinib; first compound 0.3162 µM)	relative viability (Midostaurin + Phenformin; first compound 0.01 µM)	relative viability (Midostaurin + Phenformin; first compound 0.03162 µM)	relative viability (Midostaurin + Phenformin; first compound 0.1 µM)	relative viability (Midostaurin + Phenformin; first compound 0.3162 µM)	relative viability (Midostaurin + Tozasertib; first compound 0.03162 µM)	relative viability (Midostaurin + Tozasertib; first compound 0.1 µM)	relative viability (Midostaurin + Tozasertib; first compound 0.3162 µM)	relative viability (Midostaurin + OSI-027; first compound 0.03162 µM)	relative viability (Midostaurin + OSI-027; first compound 0.1 µM)	relative viability (Midostaurin + OSI-027; first compound 0.3162 µM)	relative viability ([1]; first compound 0.0128 µM)	relative viability ([1]; first compound 0.04048 µM)	relative viability ([1]; first compound 0.128 µM)	relative viability ([1]; first compound 1.28 µM)	relative viability (Midostaurin + Tozasertib; first compound 0.01 µM)	relative viability (Midostaurin + OSI-027; first compound 0.01 µM)
HCC-44	0.756	0.659	0.579	0.609	0.157	0.251	0.167	0.201	1.04	0.819	0.778	0.501	0.529	0.401	1.21	1.27	1.04	1.01	–	–
HCC-827	0.928	0.883	0.852	1.06	0.364	0.369	0.449	0.422	0.352	0.4	0.416	0.708	0.821	0.8	0.633	0.66	0.816	0.203	0.407	0.719
NCI-H1623	–	–	–	–	0.588	0.626	0.56	0.634	0.481	0.433	0.446	0.471	0.465	0.561	0.473	0.514	0.451	0.433	0.445	0.455
NCI-H2347	0.896	0.837	0.899	0.927	0.254	0.384	0.337	0.248	0.553	0.616	0.506	0.35	0.365	0.38	0.619	–	0.576	0.34	0.494	0.453
PC-14	0.995	0.943	0.996	0.975	0.603	0.717	0.522	0.52	0.574	0.598	0.491	0.811	0.875	1.02	0.196	0.138	0.232	0.121	0.616	0.92
NCI-H1651	1.06	0.851	1.03	0.957	0.377	0.4	0.327	0.299	0.752	0.543	0.685	0.78	0.713	0.864	0.797	0.859	0.942	0.743	0.628	0.707
HARA	0.936	0.979	0.877	0.969	0.516	0.466	0.467	0.44	0.0861	0.0946	0.0968	0.4	0.516	0.757	0.784	1.03	0.516	0.296	0.142	0.672
NCI-H1650	–	–	–	–	0.408	0.498	0.413	0.302	0.359	0.357	0.342	0.71	0.647	0.597	0.162	0.194	0.19	0.181	0.391	0.574
NCI-H1395	1.06	1.22	1.01	1.02	0.459	0.459	0.488	0.523	0.785	0.708	0.769	0.675	0.615	0.763	0.631	0.651	0.646	0.398	0.726	0.591
LU99A	0.5	0.503	0.408	0.407	0.872	0.977	0.899	0.729	0.304	0.259	0.244	0.309	0.258	0.277	0.261	0.251	0.261	0.277	0.227	0.279
NCI-H1355	0.755	0.83	0.865	0.838	0.43	0.443	0.464	0.465	0.632	0.597	0.475	0.425	0.39	0.492	0.798	0.7	0.726	0.639	0.544	0.431
HCC-78	0.53	0.483	0.556	0.278	0.797	0.603	0.693	0.462	0.422	0.408	0.366	0.332	0.381	0.299	–	–	–	–	0.421	0.432
NCI-H1563	1.16	1.2	1.03	1.11	0.693	0.672	0.697	0.682	–	–	–	0.727	0.72	0.745	0.535	0.55	0.525	0.5	–	0.766
HCC-15	0.886	0.898	0.904	0.818	0.47	0.459	0.472	0.44	0.419	0.249	0.324	0.624	0.698	0.717	0.818	0.302	0.224	0.23	0.449	0.758
EKVX	0.953	1.03	0.943	0.892	0.232	0.239	0.223	0.25	0.414	0.366	0.343	0.616	0.674	0.657	0.864	0.988	0.795	0.631	0.369	0.786
NCI-H2087	0.985	0.885	0.934	1.01	0.457	0.474	0.445	0.399	0.303	0.225	0.207	0.491	0.573	0.554	0.196	–	0.165	0.152	0.249	0.567
LK-2	0.462	0.62	0.559	0.816	0.425	0.571	0.492	0.374	0.147	0.18	0.173	0.232	0.248	0.197	0.21	0.171	0.21	0.159	0.175	0.232
NCI-H1437	1.2	0.992	1.12	1.05	0.373	0.285	0.298	0.372	0.477	0.401	0.403	0.895	0.853	0.933	1.24	1.16	1.12	1.08	0.453	0.816
COR-L23	0.863	0.802	0.764	0.764	0.446	0.411	0.418	0.388	0.198	0.166	0.152	0.681	0.795	0.802	0.713	0.667	0.688	0.736	0.204	0.706

Cell Line	relative viability (Midostaurin + Linsitinib; first compound 0.01 µM)	relative viability (Midostaurin + Linsitinib; first compound 0.03162 µM)	relative viability (Midostaurin + Linsitinib; first compound 0.1 µM)	relative viability (Midostaurin + Linsitinib; first compound 0.3162 µM)	relative viability (Midostaurin + Phenformin; first compound 0.01 µM)	relative viability (Midostaurin + Phenformin; first compound 0.03162 µM)	relative viability (Midostaurin + Phenformin; first compound 0.1 µM)	relative viability (Midostaurin + Phenformin; first compound 0.3162 µM)	relative viability (Midostaurin + Tozasertib; first compound 0.03162 µM)	relative viability (Midostaurin + Tozasertib; first compound 0.1 µM)	relative viability (Midostaurin + Tozasertib; first compound 0.3162 µM)	relative viability (Midostaurin + OSI-027; first compound 0.03162 µM)	relative viability (Midostaurin + OSI-027; first compound 0.1 µM)	relative viability (Midostaurin + OSI-027; first compound 0.3162 µM)	relative viability ([1]; first compound 0.0128 µM)	relative viability ([1]; first compound 0.04048 µM)	relative viability ([1]; first compound 0.128 µM)	relative viability ([1]; first compound 1.28 µM)	relative viability (Midostaurin + Tozasertib; first compound 0.01 µM)	relative viability (Midostaurin + OSI-027; first compound 0.01 µM)
ABC-1	0.854	0.546	0.628	0.727	0.23	0.242	0.233	0.228	0.191	0.174	0.201	0.536	0.574	0.521	0.546	0.612	–	0.332	0.146	0.488
NCI-H522	–	–	–	–	0.596	0.706	0.655	0.753	0.607	0.629	0.621	0.729	0.668	0.766	1.25	1.21	1.3	0.971	0.557	0.712
NCI-H838	1.01	0.828	0.739	0.367	0.704	0.551	0.397	0.274	0.283	0.262	0.286	0.394	0.382	0.349	0.343	0.303	0.243	0.261	0.271	0.481
SW 900	–	–	–	–	0.608	0.451	0.653	0.395	0.525	0.59	0.466	0.484	0.75	0.478	0.178	0.175	0.184	0.159	0.578	0.541
A549	0.609	0.59	0.511	0.423	0.139	0.126	0.166	0.209	–	–	–	–	–	–	–	–	–	–	–	–
A-427	1.14	1.08	1.09	1.09	0.296	0.34	0.289	0.25	0.215	0.193	0.172	0.467	0.434	0.512	1.16	0.867	0.895	0.794	0.232	0.449
NCI-H1792	0.577	0.556	0.499	0.526	0.508	0.303	0.428	0.309	–	–	–	0.8	0.659	0.617	0.424	0.46	0.498	0.35	–	0.664
LCLC-97TM1	0.193	–	0.145	0.184	0.434	0.324	0.38	0.415	0.218	0.247	0.257	0.404	0.434	0.557	0.838	0.545	0.757	0.404	0.21	0.439
NCI-H1703	0.838	0.69	0.672	0.296	–	–	–	–	–	–	–	–	–	–	–	–	–	–	–	–
LCLC-103H	1.12	1.16	1.16	1.14	0.347	0.309	0.359	0.366	0.45	0.456	0.379	0.417	0.425	0.465	0.985	1.18	0.879	0.835	0.522	0.506
ChaGo-K-1	–	–	–	–	0.439	0.533	0.522	0.529	0.214	0.229	0.219	0.737	0.671	0.599	0.721	0.615	0.616	0.679	0.312	0.645
Calu-6	0.946	0.889	1	0.922	–	–	–	–	–	–	–	–	–	–	–	–	–	–	–	–
HCC-366	0.624	0.754	0.457	0.381	0.597	0.528	0.689	0.615	0.126	0.0694	0.0567	0.954	0.567	0.811	–	–	–	–	0.146	0.961
NCI-H1648	–	–	–	–	–	–	–	–	0.609	0.417	0.299	0.221	0.275	0.233	–	–	–	–	0.511	0.285
EBC-1	0.901	0.735	0.873	0.24	–	–	–	–	–	–	–	–	–	–	–	–	–	–	–	–
NCI-H1299	0.943	0.91	0.95	0.616	–	–	–	–	–	–	–	–	–	–	–	–	–	–	–	–
NCI-H2342	–	–	–	–	0.657	0.561	0.587	0.643	0.487	0.551	0.538	0.619	0.658	0.74	0.723	0.717	0.87	0.61	0.57	0.667
IA-LM	0.557	0.378	0.711	0.673	–	–	–	–	–	–	–	–	–	–	–	–	–	–	–	–
NCI-H2170	–	–	–	–	0.357	0.384	0.404	0.347	0.769	0.729	0.621	0.681	0.683	0.79	0.663	0.79	0.669	0.373	0.681	0.697
